The results in this text go back to US20220204510A1, “2,3-DIHYDRO-1H-PYRROLIZINE-7-FORMAMIDE DERIVATIVE AND APPLICATION THEREOF” (CHIA TAI TIANQING PHARMACEUTICAL GROUP CO., LTD., priority 2018, published 2022).

Series [1] concerns the target hERG potassium channel (Homo sapiens, UniProt Q12809). The series can be described thus: Inhibition test of the hERG potassium channel (automatic patch clamp, CHO-hERG cells). Type of series: cell-based. Particulars: QPatch whole-cell patch clamp, room temperature. On the procedure:
To assay the effect of the compound disclosed herein on hERG potassium channel by using automatic patch-clamp method.
The cells stably expressing the hERG potassium channel used in the experiment were CHO-hERE from Aviva Biosciences. CHO-hERG was cultured at 37° C. in 5% CO2.
The CHO-hERG cells used in the experiment were cultured for at least two days, and the cell density reached 75% or more. Before the experiment, the cells were digested with TrypLE, and then the collected cells were resuspended in extracellular fluid.
The extracellular fluid needed to be prepared once a month. The intracellular fluid must be frozen in aliquots at −20° C.
The test compound and its positive control amitriptyline were dissolved in DMSO to obtain a stock solution at a certain concentration. […]
With a holding potential of −80 mv, a voltage stimulation of −50 my was applied for 80 ms to record the cell leakage current value; then hERG channel was opened by a depolarization to +20 my for 4800 ms and hERG tail current was elicited by a repolarization to −50 my for 5000 ms and recorded; and finally, the voltage was restored to the holding potential of −80 my and maintained for 3100 ms. […]
In each complete current recording, the inhibition percentage of each compound at the action concentration could be calculated based on the percentage of peak current in the negative control. […]
(In general: The hERG channel carries a current that helps repolarise heart muscle cells.)

Series [2] in a line: Metabolic stability in liver microsomes. The settings on record: mouse, CD-1 mice liver microsomes; for half-life at 1 μM: 1 μM compound, 0.5 mg/mL; for microsomal CLint at 1 μM: read-out: CLint(mic). The series is classed as in vitro ADME. On the procedure: (§1) Experimental objective: to evaluate the metabolic stability of the test compound in CD-1 mice and human liver microsomes
(§2) Experimental procedures: first, the test compound (10 mM) was subjected to a two-step dilution, where the compound was diluted to an intermediate concentration of 100 μM with 100% methanol, and the working solution was diluted to 10 μM with a potassium phosphate buffer; eight 96-well incubation plates were prepared, and named T0, T5, T10, T20, T30, T60, Blank and NCF60, respectively; the reaction time points corresponding to the first 6 incubation plates were 0, 5, 10, 20, 30 and 60 min, respectively; for the Blank plate, neither the test compound nor a control compound was added, and for the NCF60 plate, potassium phosphate buffer was used in an incubation of 60 min in place of a NADPH regeneration system solution; 10 μL of the test compound working solution and 80 μL of the microsome working solution (liver microsome protein concentration was 0.625 mg/mL) were added to the T0, T5, T10, T20, T30, T60 and NCF60 plates, while only the microsome working solution was added to the Blank plate, and all the incubation plates were then placed in a 37° C. water bath for pre-incubation for about 10 min; after the pre-incubation, 10 μL of a NADPH regeneration system working solution was added into each sample well of all the plates except the NCF60 plate and T0 plate to start the reaction, and 10 μL of potassium phosphate buffer was added to each well of the NCF60 plate; therefore, in the test compound or control compound samples, the final reaction concentrations of the compound, testosterone, diclofenac and propafenone were 1 μM, the concentration of the liver microsomes was 0.5 mg/mL, and the final concentrations of DMSO and acetonitrile in the reaction system were 0.01% (v/v) and 0.99% (v/v), respectively; after incubation for an appropriate time (such as 5, 10, 20, 30, and 60 min), 300 μL of a stop solution (acetonitrile solution containing 100 ng/mL tolbutamide and 100 ng/mL labetalol) was added to each sample well to stop the reaction; 300 μL of the stop solution and then 10 μL of the NADPH working solution were added to the T0 plate, all the sample plates were shaken and centrifuged in a centrifuge (3220×g) for 20 min, and then 100 μL of supernatant was taken from each well and diluted with 300 μL of pure water for liquid chromatography-tandem mass spectrometry analysis.

The nature of series [3]: Metabolic stability in liver microsomes. The series is classed as in vitro ADME, human. The settings on record: for half-life at 1 μM: Human liver microsomes, 1 μM compound, 0.5 mg/mL; for CLint scaled at 1 μM / microsomal CLint at 1 μM: human liver microsomes; for microsomal CLint at 1 μM: read-out: CLint(mic). The procedure:
as §1, §2
(Liver microsomes are a subcellular fraction often used to study metabolism.)

pIC50: −log10 of the molar value. Like-named read-outs stand apart in the source and are kept apart here.

A word on the pIC50: it is −log10 of the IC50, conventionally taken in molar units. A high value points to a small IC50. By CLint scaled is commonly meant the rate of metabolic loss divided by the concentration. The term half-life denotes how long it takes for the measured level to halve. A high value points to slow decline.

Sequence of hERG potassium channel (Q12809 whole entry): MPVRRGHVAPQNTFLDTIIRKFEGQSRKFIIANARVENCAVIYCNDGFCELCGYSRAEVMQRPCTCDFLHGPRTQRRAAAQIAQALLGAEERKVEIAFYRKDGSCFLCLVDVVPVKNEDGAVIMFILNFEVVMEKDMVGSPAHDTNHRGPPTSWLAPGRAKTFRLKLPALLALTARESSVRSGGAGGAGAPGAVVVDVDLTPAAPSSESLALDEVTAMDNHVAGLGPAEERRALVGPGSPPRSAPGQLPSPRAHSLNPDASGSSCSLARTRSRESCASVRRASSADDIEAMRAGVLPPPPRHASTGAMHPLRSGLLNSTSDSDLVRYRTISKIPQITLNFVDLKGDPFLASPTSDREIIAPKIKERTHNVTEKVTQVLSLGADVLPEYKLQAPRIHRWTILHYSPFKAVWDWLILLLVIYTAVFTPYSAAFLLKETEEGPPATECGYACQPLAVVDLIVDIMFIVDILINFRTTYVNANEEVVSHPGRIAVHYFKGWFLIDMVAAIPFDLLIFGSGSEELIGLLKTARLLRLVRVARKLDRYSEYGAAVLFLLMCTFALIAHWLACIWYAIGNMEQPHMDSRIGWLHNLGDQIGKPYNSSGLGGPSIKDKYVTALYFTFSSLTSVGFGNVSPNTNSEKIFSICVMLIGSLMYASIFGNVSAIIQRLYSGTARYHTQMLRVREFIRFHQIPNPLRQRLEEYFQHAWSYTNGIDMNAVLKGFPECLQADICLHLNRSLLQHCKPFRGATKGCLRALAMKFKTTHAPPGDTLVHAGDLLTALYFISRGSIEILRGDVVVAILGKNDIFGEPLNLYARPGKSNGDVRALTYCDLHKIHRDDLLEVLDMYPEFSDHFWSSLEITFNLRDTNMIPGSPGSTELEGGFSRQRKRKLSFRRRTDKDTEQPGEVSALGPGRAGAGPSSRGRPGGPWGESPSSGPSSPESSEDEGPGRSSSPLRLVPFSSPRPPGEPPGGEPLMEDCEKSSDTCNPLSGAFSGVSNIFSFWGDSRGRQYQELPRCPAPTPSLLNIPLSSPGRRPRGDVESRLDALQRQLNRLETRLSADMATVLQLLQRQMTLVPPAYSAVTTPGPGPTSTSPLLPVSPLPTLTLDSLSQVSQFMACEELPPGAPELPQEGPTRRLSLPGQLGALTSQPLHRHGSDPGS

With `C[C@]1(NC(=O)C(=O)c2c(Cl)c(C(=O)Nc3ccc(F)c(F)c3)c3n2CCC3)CC[C@H](CC(=O)O)CC1` [Compound 18], the pIC50 in series [1] is under 4.40. Also, in series [2], the CLint scaled at 1 μM was under 38 mL/min/kg, the half-life at 1 μM is over 2.42 h and the microsomal CLint at 1 μM is under 9.6 µL/min/mg. In series [3], the half-life at 1 μM was over 2.42 h, the CLint scaled at 1 μM was under 8.6 mL/min/kg and the microsomal CLint at 1 μM was under 9.6 µL/min/mg.

In series [1], `C[C@]1(NC(=O)C(=O)c2c(Cl)c(C(=O)Nc3cc(F)c(F)c(F)c3)c3n2CCC3)CC[C@H](CC(=O)O)CC1` [Compound 25] showed a pIC50 of under 4.40. Further, in series [2], the CLint scaled at 1 μM was under 38 mL/min/kg, the half-life at 1 μM was over 2.42 h and the microsomal CLint at 1 μM is under 9.6 µL/min/mg. In addition, in series [3], the half-life at 1 μM is over 2.42 h, the CLint scaled at 1 μM was under 8.6 mL/min/kg and the microsomal CLint at 1 μM is under 9.6 µL/min/mg.
